Drawing on patent publication US10696692B2, “Amido-benzyl sulfone and sulfoxide derivates” (Forma TM, LLC, priority 2012, dated 2020), this text covers IC50 for 22 molecules.

Experiment [1] addresses NAMPT (Homo sapiens (Human), UniProt P43490). The experiment in a line: Assay 1: Biochemical Inhibition Assay (NAMPT enzymatic reaction, NMN quantified by mass spectrometry).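 Note: recombinant His-tagged human NAMPT preincubated with compound 15 min, then reacted 30 min at rt with 1 µM NAM, 100 µM PRPP, 2.5 mM ATP, NMN product read by RapidFire MS, normalized to L-Cystathionine internal standard.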 To be noted: read-out: Biochemical (IC50).
For experiment [2], the system named is A2780 cells. Put plainly: Assay 2: In-Vitro Cell Proliferation Assay (A2780 cells, SRB readout, 72 hours).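 Note: viable cells counted via sulforhodamine B staining, absorbance at 570 nm, after 72 h exposure at 37 °C, DMSO 0.1% as control, media-only background subtracted.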 The note with it: A2780 cells, 72 hours, SRB, read-out: Cell Proliferation (IC50). Type of experiment: cell-based.

Like-named read-outs stand apart in the source and are kept apart here.

Chain of NAMPT (P43490 whole entry): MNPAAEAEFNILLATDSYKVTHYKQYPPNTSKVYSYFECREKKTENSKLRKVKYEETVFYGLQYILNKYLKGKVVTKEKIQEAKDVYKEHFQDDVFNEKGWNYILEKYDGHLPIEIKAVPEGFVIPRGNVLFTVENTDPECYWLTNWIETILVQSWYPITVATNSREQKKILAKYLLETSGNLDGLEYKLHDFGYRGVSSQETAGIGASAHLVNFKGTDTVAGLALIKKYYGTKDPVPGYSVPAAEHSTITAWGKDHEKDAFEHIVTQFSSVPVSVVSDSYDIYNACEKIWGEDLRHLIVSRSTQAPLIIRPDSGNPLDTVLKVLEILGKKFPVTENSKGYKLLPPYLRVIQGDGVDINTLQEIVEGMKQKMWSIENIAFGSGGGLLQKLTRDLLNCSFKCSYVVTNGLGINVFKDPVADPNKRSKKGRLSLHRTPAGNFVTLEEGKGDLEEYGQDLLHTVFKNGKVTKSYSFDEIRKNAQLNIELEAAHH

Regarding `O=C(NCc1ccc(S(=O)(=O)C2CCN(C(=O)c3ccccc3)CC2)cc1)c1cnc2[nH]ncc2c1` [Example 344, N-[[4-[(1-benzoyl-4-piperidyl)sulfonyl]phenyl]methyl]-1H-pyrazolo[3,4-b]pyridine-5-carboxamide], the IC50 in experiment [1] was determined as 302 nM; in experiment [2] (Homo sapiens, A2780, 72 h), 451 nM.

`O=C(NCc1ccc(S(=O)(=O)C2CCN(CC(F)(F)F)CC2)cc1)c1ccc2nccn2c1` [Example 65, Imidazo[1,2-a]pyridine-6-carboxylic acid 4-[1-(2,2,2-trifluoro-ethyl)-piperidine-4-sulfonyl]-benzylamide]: the values for the IC50 in experiment [1] and in experiment [2] were 12.4 nM and 2.1 nM, respectively.

Consider `CN1C[C@H]2C[C@@H](C1)N(S(=O)(=O)c1ccc(CNC(=O)c3ccc4nccn4c3)cc1)C2` (racemic) [Example 165, cis-Imidazo[1,2-a]pyridine-6-carboxylic acid 4-(3-methyl-3,6-diaza-bicyclo[3.2.1]octane-6-sulfonyl)-benzylamide], for which the IC50 in experiment [1] is 95.8 nM; in experiment [2] (Homo sapiens, A2780, 72 h), 22 nM.

Turning to `O=C(NCc1ccc(S(=O)(=O)N2CCOCC2)cc1)c1cnc2[nH]ncc2c1` [Example 9, 1H-Pyrazolo[3,4-b]pyridine-5-carboxylic acid 4-(morpholine-4-sulfonyl)-benzylamide], the IC50 in experiment [1] worked out at 105 nM; in experiment [2] (Homo sapiens, A2780, 72 h) it was 278 nM.

Turning to `CN(C)CCN1CCN(S(=O)(=O)c2ccc(CNC(=O)c3ccc4nccn4c3)cc2)CC1` [Example 105, Imidazo[1,2-a]pyridine-6-carboxylic acid 4-[4-(2-dimethylamino-ethyl)-piperazine-1-sulfonyl]-benzylamide], the IC50 came out at 6.8 nM in experiment [1] and 9 nM in experiment [2] (Homo sapiens, A2780, 72 h).

In the case of `O=C(NCc1ccc(S(=O)(=O)N2CC(F)(F)C2)cc1)c1cnc2[nH]ncc2c1` [Example 281, N-[[4-(3,3-difluoroazetidin-1-yl)sulfonylphenyl]methyl]-1H-pyrazolo[3,4-b]pyridine-5-carboxamide], the IC50 in experiment [1] is 95.6 nM; in experiment [2] (Homo sapiens, A2780, 72 h), 378 nM.

As for `CC(C)(C)OC(=O)N1CCC2(CCN(S(=O)(=O)c3ccc(CNC(=O)c4ccc5nccn5c4)cc3)C2)C1` (centres unmarked) [Example 241, tert-butyl 2-[4-[(imidazo[1,2-a]pyridine-6-carbonylamino)methyl]phenyl] sulfonyl-2,7-diazaspiro[4.4]nonane-7-carboxylate], the IC50 is 14.4 nM in experiment [1] and 4.14 nM in experiment [2] (Homo sapiens, A2780, 72 h).

On to `NCC12CC(CN1S(=O)(=O)c1ccc(CNC(=O)c3ccc4nccn4c3)cc1)C2` [Example 328, N-[[4-[[4-(aminomethyl)-3-azabicyclo[2.1.1]hexan-3-yl]sulfonyl]phenyl]methyl) imidazo[1,2-a]pyridine-6-carboxamide], for which the IC50 is 1680 nM in experiment [1] and 2000 nM in experiment [2] (Homo sapiens, A2780, 72 h).

Consider `O=C(NCc1ccc(S(=O)(=O)[C@H]2CCOC2)cc1)c1cnc2nccn2c1` [Example 222, N-[[4-[(3S)-tetrahydrofuran-3-yl]sulfonylphenyl]methyl] imidazo[1,2-a]pyrimidine-6-carboxamide], for which the IC50 is 9.77 nM in experiment [1] and 423 nM in experiment [2] (Homo sapiens, A2780, 72 h).

Take `O=C(NCc1ccc(S(=O)(=O)N2CCC[C@@H]2CO)cc1)c1ccc2nccn2c1` [Example 106, Imidazo[1,2-a]pyridine-6-carboxylic acid 4-((R)-2-hydroxymethyl-pyrrolidine-1-sulfonyl)-benzylamide]: the IC50 in experiment [1] amounted to 48.6 nM; in experiment [2] (Homo sapiens, A2780, 72 h), 57.7 nM.

Take `O=C(NCc1ccc(S(=O)(=O)N2CC3CCC(F)(F)C3C2)cc1)c1ccc2nccn2c1` (single isomer, unassigned) [Example 74, cis-Imidazo[1,2-a]pyridine-6-carboxylic acid 4-(4,4-difluoro-hexahydro-cyclopenta[c]pyrrole-2-sulfonyl)-benzylamide]: the IC50 amounted to 5 nM in experiment [1] and 2.7 nM in experiment [2].

With `O=C(NCc1ccc(S(=O)(=O)N2CC3(CCOC3)C2)cc1)c1ccc2nccn2c1` [Example 220, N-[[4-(6-oxa-2-azaspiro[3.4]octan-2-ylsulfonyl)phenyl]methyl] imidazo[1,2-a]pyridine-6-carboxamide], the IC50 in experiment [1] stood at 25 nM; in experiment [2] (Homo sapiens, A2780, 72 h), 16.8 nM.

Regarding `O=C(NCc1ccc(S(=O)(=O)N2CCC2)cc1)c1ccc2nccn2c1` [Example 240, N-[[4-(azetidin-1-ylsulfonyl)phenyl]methyl] imidazo[1,2-a]pyridine-6-carboxamide], the IC50 in experiment [1] worked out at 41 nM; in experiment [2] (Homo sapiens, A2780, 72 h), 140 nM.

With `O=C(NCc1ccc(S(=O)(=O)N2CC3CC2CC3F)cc1)c1ccc2nccn2c1` (racemic) [Example 164, cis-Imidazo[1,2-alpyridine-6-carboxylic acid 4-(5-fluoro-2-aza-bicyclo[2.2.1]heptane-2-sulfonyl)-benzylamide], the IC50 came to 8.1 nM in experiment [1] and 12.4 nM in experiment [2] (Homo sapiens, A2780, 72 h).

Consider `N#CC1CCN(S(=O)(=O)c2ccc(CNC(=O)c3cc4ccncc4o3)cc2)CC1` [Example 12, Furo[2,3-c]pyridine-2-carboxylic acid 4-(4-cyano-piperidine-1-sulfonyl)-benzylamide], for which the IC50 was 26.2 nM in experiment [1] and 186 nM in experiment [2] (Homo sapiens, A2780, 72 h).

For the molecule `CC(C)(C)OC(=O)N[C@@]12C[C@@H]1CN(S(=O)(=O)c1ccc(CNC(=O)c3ccc4nccn4c3)cc1)C2` (racemic) [Example 132, cis-[3-(4-{[(Imidazo[1,2-a]pyridine-6-carbonyl)-amino]-methyl}-benzenesulfonyl)-3-aza-bicyclo[3.1.0]hex-1-yl]-carbamic acid tert-butyl ester], the IC50 was found to be 19.4 nM in experiment [1] and 3.22 nM in experiment [2] (Homo sapiens, A2780, 72 h).

As for `CN1CCN(S(=O)(=O)c2ccc(CNC(=O)c3ccc4nccn4c3)cc2)CC1` [Example 17, Imidazo[1,2-a]pyridine-6-carboxylic acid 4-(4-methyl-piperazine-1-sulfonyl)-benzylamide], the IC50 in experiment [1] came out at 101 nM; in experiment [2] (Homo sapiens, A2780, 72 h), 53.4 nM.

For the molecule `CCCC(=O)N1CCC(S(=O)(=O)c2ccc(CNC(=O)c3cc4ccncc4o3)cc2)CC1` [Example 314, N-[[4-[(1-butanoyl-4-piperidyl)sulfonyl]phenyl]methyl]furo[2,3-c]pyridine-2-carboxamide], the IC50 in experiment [1] is 20.3 nM; in experiment [2] (Homo sapiens, A2780, 72 h), 51.9 nM.

On to `CC(=O)N1CCC(S(=O)(=O)c2ccc(CNC(=O)c3cnc4[nH]ncc4c3)cc2)CC1` [Example 228, N-[[4-(1-Acetylpiperidine-4-sulfonyl)phenyl]methyl]-1H-pyrazolo[3,4-b]pyridine-5-carboxamide], for which the IC50 in experiment [1] was 207 nM; in experiment [2] (Homo sapiens, A2780, 72 h) it was 151 nM.

On to `O=C(NCc1ccc(S(=O)(=O)N2CCC[C@@H](O)C2)cc1)c1cc2ccncc2o1` [Example 82, Furo[2,3-c]pyridine-2-carboxylic acid 4-((R)-3-hydroxy-piperidine-1-sulfonyl)-benzylamide], for which the IC50 in experiment [1] was 26.1 nM; in experiment [2], 34.8 nM.

Consider `O=C(NCc1ccc(S(=O)(=O)C2CCN(CC(F)(F)F)CC2)cc1)c1ccc2nccn2c1` [Example 210, N-[[4-[[1-(2,2,2-trifluoroethyl)-4-piperidyl)sulfonyl]phenyl]methyl]imidazo[1,2-a]pyridine-6-carboxamide], for which the IC50 in experiment [1] was 17.7 nM; in experiment [2] (Homo sapiens, A2780, 72 h), 3.47 nM.

Turning to `CN1CCC([S+]([O-])c2ccc(CNC(=O)c3cc4ccncc4o3)cc2)CC1` (centres unmarked) [Example 379, N-[[4-[(1-methyl-4-piperidyl)sulfinyl]phenyl]methyl]furo[2,3-c]pyridine-2-carboxamide], the IC50 in experiment [1] amounted to 114 nM; in experiment [2] (Homo sapiens, A2780, 72 h) it was 41.4 nM.
